Data on one compound can be found in patent US8575376B2, “Steroide anionic compounds, method of their production, usage and pharmaceutical preparation involving them” (Ustav Organicke Chemie A Biochemie Akademie Ved Ceske …, priority 2009, dated 2013).

For data set [1], the system named is rats. Description: Active allothetic place avoidance (AAPA) task, compound applied alone. It is filed as in vivo, rat. As to conditions: Example 9 1 and 10 mg/kg s.c., dizocilpine 0.1-0.3 mg/kg i.p. The method, then:
The effect of compound from Example 9 on cognitive behaviors and locomotion was assessed using active allothetic place avoidance (AAPA) task, which requires intact hippocampi and ability of animals to navigate in space using distinct reference frames (spatial navigation and “cognitive coordination”) (Wesierska et al., 2005) and it also allows measuring changes in the accompanying locomotor activity. AAPA task training involves animals trained to move over a slowly rotating uniform circular arena, on which a prohibited sector is defined, entering which is punished by a mild footshock. A shock sector and its position can be determined solely by its relationship to distal orienting cues in the room (Stuchlik et al., 2008).
This task is highly dependent upon hippocampal formation, with unilateral reversible ablation of this structure with TTX leading to avoidance deficit (Cimadevilla et al., 2001). Animals solving this task should walk in a direction opposite to arena rotation; otherwise it would be repeatedly brought to a fixed sector by arena rotation. We conducted 4 acquisition session of AAPA task, during which the sector location was always reinforced and remained stable throughout the training. Each session lasted 20 min.
Control animals obtained saline intraperitoneally (i.p.) whilst experimental groups received subcutaneous (s.c.) injections of the compound from Example 9 at doses 1 mg/kg and 10 mg/kg (dissolved in cyclodextrin). Solution of compound from Example 9 (1 mg/2 ml or 10 mg/2 ml in cyclodextrin) was applied s.c. at a volume 2 ml/kg of body weight (b.w.). Intraperitonal application of dizocilpine (a non-competitive NMDA receptor antagonist; showing significant neuroprotective activity but exerting cognition-disturbing and psychotomimetic effects) was used as a positive control. Dizocilpine was applied at doses 0.1 mg/kg, 0.2 mg/kg and 0.3 mg/kg. It is worth noting that dizocilpine (albeit its experimental neuroprotective activity) is often used to model schizophrenia-like behaviors in […] and it has been repeatedly shown to exert a dose-dependent learning deficit and hyperlocomotion.

Data set [2] concerns rats. Description: Footshock-induced ultrasonic vocalization (anxiety). It is filed as in vivo, rat. How it is done: Effect of compound from example 9 application at doses of 0.001 mg/kg, 0.01 mg/kg and 10 mg/kg on ultrasonic vocalization after exposure to stressful situation (foot-shock) as a measure of anxiety. Under conditions of stress and pain, rats are known to emit ultrasonic distress calls at a frequency of about 22 kHz. On the first day, rats were placed into the shock chamber individually and after 30 s of habituation, they received 6 inescapable electric foot-shocks (1 shock/1 minute, 1 mA) of 10 seconds duration. The procedure was repeated 24 hours later, but this time, the animals received only one 10-second shock. Afterwards, the rats were injected i.p. with vehicle (b-cyclodextrine) or the compound from example 9 at doses of 0.001, 0.01, and 10 mg/kg) 30 min prior to testing. During the test session, animals were placed into the shock chamber for 10 minutes and their ultrasonic vocalization was recorded. […] Each animal was recorded separately with a Mini-3 Bat Detector (Ultra Sound Advice, London, UK). Ultrasonic vocalizations at 22-kHz consisting of calls with a minimal duration of 300 ms were recorded and analyzed by UltraVox 2.0 program (Noldus, Wageningen, The Netherlands). The total number of vocalization events and their total duration were recorded.

The test system of data set [3] is rats. Description: Prepulse inhibition in MK-801 animal model of schizophrenia. It is filed as in vivo, rat. How it is done: The effect of i.p. administration of the compound from example 9 at doses of 0.1 and 1 mg/kg on sensorimotor gating in prepulse inhibition (PPI) test was evaluated. All testing occurred within the startle chamber (SR-LAB, San Diego Instruments, USA), which consisted of a clear Plexiglas cylinder (8.2 cm diameter, 10×20 cm) that rested on a piezoelectric accelerometer inside a ventilated and illuminated chamber. The piezoelectric accelerometer detected and transduced motion within the cylinder. A high frequency loudspeaker inside the chamber (24 cm above the animal) produced both a background noise of 62 dB and the acoustic stimuli. All rats were initially tested in a short session (5 min acclimatization period plus 5 single stimuli; 120 dB strong) 2 days before the experiment.
The background noise (62 dB) was presented alone for 5 min (acclimatization period) and then continued throughout the session. […] The PPI was measured as a difference between the average responses to the single pulse and prepulse-pulse trials, and was expressed as a percent of the PPI [100−(mean response for prepulse-pulse trials/startle response for single pulse trials)×100]. […]

Data set [4] deals with Wistar rats. Put plainly: Thermal nociception, plantar test (limb and tail withdrawal latency). In kind it is in vivo, rat. The method, then: The effect of the compound from example 9 was assessed on acute nociception in rat. Pain was evaluated by measurement of paw/tail withdrawal latencies. Male Wistar rats (Velaz, Czech Republic) were used. Animals were kept at 22° C. (relative humidity was 40-70%) under a 12-hour light/12-hour dark cycle. All experiments were approved by the Committee for Animal Care and conducted in accordance with the ethical guidelines of the International Association for the Study of Pain. The animals were randomly divided into experimental and testing groups groups. The compound from example 9 was dissolved in β-cyclodextrine (the concentration 1.0 mg/ml and 10 mg/kg injected intraperitoneally or β-cyclodextrine injected intraperitoneally in same volume).
Thermal nociception was determined using plantar test equipment (Ugo Basile, Italy). The latency (in seconds) of forelimb, hindlimb or tail withdrawals to the noxious thermal stimulation was measured. Each animal was placed individually in a clear plastic box with a clear glass floor, and was allowed to acclimatize for 10 min; the temperature and humidity in the testing room were kept in the same range as those in the housing rooms. The latencies were measured 3 times per session, separated by a minimum interval of 5 min, and the mean value was used for further analysis. Infrared intensity was set to 40% and the maximum cutoff value was set at 22 seconds to avoid thermal injury. The testing box was cleaned after each session.

Data set [5] is described as follows: Neuropathic pain model. It is filed as in vivo. To be noted: no data shown.

Turning to `CC(=O)[C@H]1CC[C@H]2[C@@H]3CC[C@@H]4C[C@H](OC(=O)[C@@H](N)CCC(=O)O)CC[C@]4(C)[C@H]3CC[C@]12C` [Example 9, 20-Oxo-5β-pregnan-3α-yl L-glutamyl 1-ester], in data set [1], the “maximum time avoided in AAPA” value is “did not significantly impaired cognitive performance compared to control animals”. Also, the “number of entrances into shock sector in AAPA” value in data set [1] is recorded as “neither of doses of compound from Example 9 caused worsening in this parameter”. For the same compound, the “total distance traveled in AAPA (locomotor activity)” value in data set [1] (20-min sessions) is “failed to exhibit either decrease or increase in total distance compared to controls”. Besides, the “anxiolytic effect, ultrasonic vocalization” value in data set [2] (0.001, 0.01 and 10 mg/kg i.p., 30 min prior to testing) was “slight dose-dependent anxiolytic effect”. In addition, the “total duration of ultrasonic vocalizations” value in data set [2] (10 mg/kg i.p.) was “Significant difference”. Moreover, in data set [3] (Example 9 0.1 or 1 mg/kg i.p. co-administered with MK-801 0.1 mg/kg), the “prepulse inhibition deficit induced by MK-801” value is given as “blocked the exacerbating effect of MK-801”. Moreover, the prepulse inhibition entry in data set [3] (Example 9 alone, 0.1 and 1 mg/kg i.p.) is recorded as “had no influence on prepulse inhibition”. Moreover, the “limb withdrawal latency to thermal stimulus” value was “Such an effect was not however observed” in data set [4] (1 mg/kg i.p.) and “significantly prolonged interval of resistance to a painful stimulus” in data set [4] (10 mg/kg i.p., p<0.001). In addition, the “tail withdrawal reaction to thermal stimulus” value in data set [4] (10 mg/kg i.p.) is on record as “suppressed reactivity to painful stimuli”; in data set [4] (lower dose (1 mg/kg i.p.)) it was “did not yield such an effect”. Moreover, in data set [5], the “action on the neuropathic pain model” value is “Beneficial action”.
